Where a chain is given by its changes, count along the chain named. Where two headings read alike, the source gives them in different places.
Columns and labels:
hOGA [1] = molecular target: T1, hOGA (Homo sapiens, UniProt O60502); assay: hOGA glycopeptide hydrolysis, substrate competition assay with 4MU-GlcNAc reporter; assay type: biochemical; design: GST (N); made in house; host or cells: transiently transfected HEK293 cells; details: wild-type full-length hOGA, competition with 4MU-GlcNAc reporter substrate, 37°C, 50 mM citrate-phosphate buffer pH 7.4, 0.1 mg/ml BSA, triplicate, ± error of curve-fit, read-out: Michaelis constant (KM) of glycopeptide substrate for hOGA
T1 sequence (O60502 1-916): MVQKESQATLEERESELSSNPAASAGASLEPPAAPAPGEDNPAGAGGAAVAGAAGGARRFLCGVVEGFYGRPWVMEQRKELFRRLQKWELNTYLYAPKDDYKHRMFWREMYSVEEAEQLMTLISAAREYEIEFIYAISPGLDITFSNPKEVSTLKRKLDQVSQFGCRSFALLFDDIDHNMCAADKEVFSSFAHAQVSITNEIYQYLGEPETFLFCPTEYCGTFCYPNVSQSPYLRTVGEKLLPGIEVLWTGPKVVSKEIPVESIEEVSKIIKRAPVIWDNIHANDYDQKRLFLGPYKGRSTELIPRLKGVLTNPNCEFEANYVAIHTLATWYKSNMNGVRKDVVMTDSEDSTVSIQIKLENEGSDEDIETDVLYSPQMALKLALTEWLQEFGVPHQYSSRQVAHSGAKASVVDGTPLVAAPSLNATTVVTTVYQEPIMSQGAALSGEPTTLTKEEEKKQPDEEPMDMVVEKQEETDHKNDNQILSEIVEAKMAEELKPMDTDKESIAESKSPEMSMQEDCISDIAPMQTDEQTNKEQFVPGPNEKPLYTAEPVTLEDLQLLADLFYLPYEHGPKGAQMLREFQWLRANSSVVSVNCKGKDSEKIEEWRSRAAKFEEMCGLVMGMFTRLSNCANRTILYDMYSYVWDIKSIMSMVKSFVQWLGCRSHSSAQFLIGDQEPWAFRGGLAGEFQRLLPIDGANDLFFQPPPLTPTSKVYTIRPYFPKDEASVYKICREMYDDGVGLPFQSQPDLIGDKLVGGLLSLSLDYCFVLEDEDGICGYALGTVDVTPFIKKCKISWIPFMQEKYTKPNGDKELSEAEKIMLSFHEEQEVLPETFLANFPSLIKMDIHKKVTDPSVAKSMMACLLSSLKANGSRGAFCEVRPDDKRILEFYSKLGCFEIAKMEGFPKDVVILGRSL
Method: Protein was expressed in transiently transfected HEK293 cells and purified via glutathione sepharose affinity chromatography.
hOGA and CpOGA glycopeptide hydrolysis assays were carried out as described previously ([Dorfmueller et al., 2006; Schimpl et al., 2010]) using multisubstrate enzyme kinetics with the fluorigenic pseudosubstrate 4MU-GlcNAc as the reporter substrate. […] Reactions were performed at 37°C in 50 mM citrate-phosphate buffer (pH 7.4) and 0.1 mg/ml BSA. Experiments were performed in triplicate, and data were analyzed and plotted with GraphPad PRISM.

hOGA Y69S = molecular target: T2, hOGA Y69S (Homo sapiens, UniProt O60502, Y69S); assay: hOGA Y69S mutant glycopeptide hydrolysis, substrate competition assay; assay type: biochemical; details: hOGA point mutant Y69S; competition with 4MU-GlcNAc; 37°C, pH 7.4; triplicate; read-out: Michaelis constant (KM) for hOGA Y69S
T2 construct: GST (N); made in house; host or cells: transiently transfected HEK293 cells
T2 sequence (O60502 1-916 Y69S): T1 sequence (O60502 1-916) with Y69S

hOGA [2] = molecular target: T1, hOGA; design: GST (N); made in house; details: wild-type hOGA; substrate competition assay with 4MU-GlcNAc; value reproduced from earlier paper; ref Schimpl et al., 2010; read-out: Michaelis constant (KM) of glycopeptide substrate for hOGA; cited from earlier work
Text: Table 1 Hydrophobic Stacking Interactions of Tyr69 Are Essential for Substrate Binding by hOGA | column: hOGA Peptide / VAHS(O-GlcNAc)GAK || Table 2 Intramolecular Hydrogen Bonds Stabilize the Substrate Conformation and Reduce the Km for hOGA | column: TAB1 Peptide (Ser395) || Figure 1 OGA Binds Different O-GlcNAc Glycopeptides with Similar Conformation but Different Affinities (A) Origin and sequence of O-GlcNAc peptides. The sequence of the longest peptides used is given, with residues observed in the crystal structure highlighted by colored boxes, and the shorter peptides indicated by brackets.

Question: Which Km (hOGA [1]) does the source give for “p53 (Ser149) 11: 11-residue O-GlcNAc glycopeptide derived from p53 Ser149 site” here?
Answer: 21 ± 3 µM

Question: And the Km (hOGA Y69S)?
Answer: 0.29 ± 0.02 mM

Question: For “PVSVPYS(O-GlcNAc)SAQSTS [TAB1 (Ser395) 13, 13-residue O-GlcNAc glycopeptide derived from TAB1 Ser395 site]”, which Km (hOGA [1]; listed as PVSVPYS(O-GlcNAc)SAQSTS) is on record?
Answer: 940 ± 80 µM

Question: What about the Km (hOGA [1]) of the same substance?
Answer: 900 ± 30 µM

Question: And the Km (hOGA Y69S)?
Answer: > 4 mM

Question: Which Km (hOGA Y69S) does the source give for “VAHS(O-GlcNAc)GAK [hOGA (Ser405) 7, 7-residue O-GlcNAc glycopeptide derived from hOGA Ser405 site]” here?
Answer: > 4 mM

Question: And the Km (hOGA [2])?
Answer: 790 ± 40 µM

— PMC3476531, “Synergy of Peptide and Sugar in O-GlcNAcase Substrate Recognition” (Chemistry & Biology, 2012)
